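Cultured in 96-well plates, cells were exposed to test compound for 48 hours across five concentrations. Abbreviation: GI50, concentration required for 50% inhibition of growth.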 Activity calls are given as the source filed them. Cut-off read from the data, not from the text of the source: active = GI50 up to about 1.1 µM and inactive = higher.

What all share (assay): NCI tumour cell line growth inhibition, 48 h
In test [1] the test system is LOX IMVI.
The test system of test [2] is OVCAR-8.
In test [3] the test system is COLO 205.
The subject of test [4] is SK-MEL-5.
Test [5] relates to OVCAR-5.
For test [6], the system named is ACHN.
Test [7] concerns HOP-62.
In test [8] the test system is RXF 393.
The test system of test [9] is A549.
The subject of test [10] is IGROV-1.
The test system of test [11] is SF-268.
Test [12] concerns MOLT-4.
Test [13] deals with NCI-H23.
The test system of test [14] is SN12C.
Test [15] relates to U-251.
Test [16] has as its system TK-10.
Test [17] deals with MDA-N.
In test [18] the test system is Hs-578T.
Test [19] relates to NCI-H226.
The subject of test [20] is MCF7.

In the case of `CS(=O)(=O)Nc1ccc2ccccc2c1-c1c(NS(C)(=O)=O)ccc2ccccc12`, the GI50 is > 25 µM (inactive) in test [1]; > 25 µM (inactive) in test [2]; > 25 µM (inactive) in [3]; > 25 µM (inactive) in test [4]; > 25 µM (inactive) in test [5]; 0.982 µM (active) in test [6]. The GI50 in [7] was > 25 µM (inactive); in test [8], > 21.5 µM (inactive); in test [9] it was > 25 µM (inactive); in [10], > 25 µM (inactive); in test [11] it was > 25 µM (inactive); in [12], > 25 µM (inactive). Also, the GI50 in [13], in test [14], in test [15], in test [16], in test [17] and in [18] was > 25 µM (inactive) throughout. Further, the GI50 in [19] was > 25 µM (inactive); in test [20], 1.17 µM (inactive).
With `OCCNCCN1CCN(CCCN2c3ccccc3Sc3ccc(C(F)(F)F)cc32)CC1`, the GI50 in [1] is 14.5 µM (inactive); in test [2], 18 µM (inactive); in [3], 18.2 µM (inactive); in test [4], > 100 µM (inactive); in test [5] it was 25.5 µM (inactive); in [6], 24.9 µM (inactive). For the same compound, the GI50 in [7] was 21.4 µM (inactive); in [8] it was 26.3 µM (inactive); in test [9] it was 24 µM (inactive); in test [10], > 100 µM (inactive); in test [11] it was 24.5 µM (inactive); in test [12], > 100 µM (inactive). Also, the GI50 in test [13] is 27.2 µM (inactive); in test [14], 18.2 µM (inactive); in [15], 20.3 µM (inactive); in test [16] it was 22.1 µM (inactive); in test [17] it was 19 µM (inactive); in [18] it was 47.3 µM (inactive). The GI50 in [19] was 26.5 µM (inactive); in test [20], 23.6 µM (inactive).
On to `Cc1ccc(/C=N/Nc2ccccn2)s1`, for which the GI50 in [1] was > 50.4 µM (inactive); in [2] it was > 100 µM (inactive); in [3], > 100 µM (inactive); in test [4] it was > 100 µM (inactive); in test [5] it was > 100 µM (inactive); in test [6], > 100 µM (inactive). Besides, the GI50 in test [7] was > 100 µM (inactive); in test [8], > 100 µM (inactive); in [9] it was > 100 µM (inactive); in test [10], > 100 µM (inactive); in test [11] it was > 64.6 µM (inactive); in test [12], > 100 µM (inactive). The GI50 in [13] is > 100 µM (inactive); in test [14] it was > 47.4 µM (inactive); in test [15] it was > 100 µM (inactive); in [16] it was > 31.6 µM (inactive); in [17], > 54 µM (inactive); in test [18], > 100 µM (inactive). Also, the results for the GI50 in test [19] and in [20] were > 56.5 µM (inactive) and 21.1 µM (inactive), respectively.
Turning to `Nc1nc(-c2ccc3ccccc3c2)cc(-c2cc(-c3ccc4ccccc4c3)nc(N)n2)n1`, the GI50 in [1], in test [2], in test [3], in test [4], in test [5] and in [6] was > 100 µM (inactive) throughout. Further, the GI50 in test [7], in [8], in [9], in test [10], in test [11] and in test [12] was > 100 µM (inactive) throughout. Further, the GI50 in test [13], in test [14], in test [15], in test [16], in test [17] and in test [18] was > 100 µM (inactive) in each case. Also, the GI50 in test [19] and in test [20] was > 100 µM (inactive) throughout.
As for `COC(=O)C(C)(C)[C@@H]1OC(=O)N(S(=O)(=O)c2c(C)cc(C)cc2C)[C@H]1C(C)C`, the GI50 in test [1] is 78 µM (inactive); in test [2], > 100 µM (inactive); in [3] it was 27 µM (inactive); in test [4] it was 41.8 µM (inactive); in test [5], > 100 µM (inactive); in [6], > 100 µM (inactive). In addition, the GI50 in test [7] is > 100 µM (inactive); in test [8] it was > 100 µM (inactive); in test [9] it was 85.7 µM (inactive); in test [10] it was > 100 µM (inactive); in [11], > 100 µM (inactive); in test [12] it was 40 µM (inactive). Also, the GI50 is 46.8 µM (inactive) in [13]; > 100 µM (inactive) in [14]; > 100 µM (inactive) in test [15]; > 100 µM (inactive) in test [16]; > 100 µM (inactive) in test [17]; 43 µM (inactive) in test [18]. The GI50 in [19] is 27.4 µM (inactive); in test [20] it was 75.9 µM (inactive).
Take `COc1nc(C(Cl)(Cl)Cl)c(Cl)c(OC)c1Cl` [PENCLOMEDINE]: the GI50 in [1] is 29 µM (inactive); in test [2], 21.2 µM (inactive); in test [3] it was 44.1 µM (inactive); in test [4] it was 22.5 µM (inactive); in test [5], 42.9 µM (inactive); in test [6], 39.3 µM (inactive). The GI50 in test [7] was 12.1 µM (inactive); in test [8] it was 36.7 µM (inactive); in [9] it was 40.5 µM (inactive); in [10], 14.2 µM (inactive); in test [11], 36.1 µM (inactive); in [12] it was 19.4 µM (inactive). Also, the GI50 is 42.2 µM (inactive) in test [13]; 39 µM (inactive) in test [14]; 36.1 µM (inactive) in test [15]; 52.6 µM (inactive) in test [16]; 26.9 µM (inactive) in test [17]; 33.3 µM (inactive) in [18]. Besides, the GI50 in test [19] was 34.4 µM (inactive); in test [20] it was 17.7 µM (inactive).
For the compound `CC(C)c1cc(C(C)C)c(P2(=O)CC3C(Cl)(Cl)C3(C)C2)c(C(C)C)c1` (stereo not given), the GI50 was 6.68 µM (inactive) in test [1]; 7.67 µM (inactive) in [2]; 11.7 µM (inactive) in test [3]; 10.1 µM (inactive) in test [4]; 16.3 µM (inactive) in test [5]; 12.5 µM (inactive) in test [6]. Besides, the GI50 in [7] was 10.3 µM (inactive); in test [8], 12.9 µM (inactive); in test [9] it was 9.33 µM (inactive); in [10] it was 12.1 µM (inactive); in [11], 12.1 µM (inactive); in [12], 2.77 µM (inactive). Besides, the GI50 in test [13] is 9.55 µM (inactive); in test [14], 12.3 µM (inactive); in [15], 8.67 µM (inactive); in test [16], 12.1 µM (inactive); in test [17], 10.9 µM (inactive); in test [18], 17.3 µM (inactive). Further, the GI50 in [19] was 16.7 µM (inactive); in [20], 7.31 µM (inactive).
In the case of `CCOC(=O)c1cn2c(n1)sc1cc(Cl)cc(Cl)c12`, the GI50 in [1], in [2], in [3], in [4], in test [5] and in [6] was > 100 µM (inactive) in each case. The GI50 in [7], in test [8], in test [9], in test [10], in [11] and in test [12] was > 100 µM (inactive) throughout. Moreover, the GI50 in test [13], in test [14], in test [15], in [16], in test [17] and in [18] was > 100 µM (inactive) throughout. For the same compound, the GI50 in test [19] and in [20] was > 100 µM (inactive) each time.
`COC(=O)CCC(C)[C@H]1CCC2C3C(C[C@H](OC(C)=O)[C@@]21C)[C@@]1(C)CCC2(C[C@H]1C[C@H]3OC(C)=O)OOC1(CCCC1)OO2` (stereo not given in full): the GI50 in [1] is 7 µM (inactive); in test [2] it was 34.4 µM (inactive); in [3], 30.4 µM (inactive); in [4] it was 20.2 µM (inactive); in test [5] it was > 100 µM (inactive); in test [6] it was 10.4 µM (inactive). The GI50 in [7] was 10.3 µM (inactive); in test [8], 63.1 µM (inactive); in test [9], 12.9 µM (inactive); in test [10], 5.6 µM (inactive); in test [11] it was 25.6 µM (inactive); in test [12], 4.28 µM (inactive). Moreover, the GI50 in test [13] is 9.18 µM (inactive); in test [14], 42.5 µM (inactive); in test [15], 8.93 µM (inactive); in [16], 48.3 µM (inactive); in test [17], 32.4 µM (inactive); in test [18], 16.5 µM (inactive). Also, the GI50 in test [19] was 27.9 µM (inactive); in test [20], 31.5 µM (inactive).
Consider `Cc1c(Cl)cc(C(C)(C)C)c(O)c1Cc1c(C)c(Cl)cc(C(C)(C)C)c1O`, for which the GI50 in test [1] is 1.56 µM (inactive); in test [2] it was 1.49 µM (inactive); in test [3] it was 1.12 µM (active); in [4], 0.762 µM (active); in test [5] it was 3.43 µM (inactive); in test [6], 1.29 µM (inactive). The GI50 is 2.96 µM (inactive) in [7]; 0.9 µM (active) in test [8]; 0.804 µM (active) in test [9]; 1.1 µM (active) in test [10]; 1.74 µM (inactive) in [11]; 0.818 µM (active) in test [12]. Also, the GI50 in test [13] was 0.656 µM (active); in [14] it was 1.87 µM (inactive); in test [15], 1.51 µM (inactive); in test [16], 2.04 µM (inactive); in test [17], 2.18 µM (inactive); in test [18], 0.635 µM (active). Also, the GI50 was 2.22 µM (inactive) in test [19] and 1 µM (active) in [20].
